Marks after values point to notes of the source that are not given here.
Tests used:
HepG2 cells = test: Transcriptional profiling by DNA microarray, HepG2 cells; assay type: cell-based, human; details: endogenous levels of PPARα
Text: Threshold cutoffs were set at fold change >1.4; p<0.01; and statistically significant in at least 2 experiments. The genes fatty acid CoA ligase 2 (FACL2), palmitoyl acyl-CoA oxidase 1 (ACOX1), and carnitine palmitoyl acyl-CoA transferase (CPT1A) are included for comparison based on published reports that they are PPARα responsive genes in HepG2 cells over expressing PPARα (Hsu et al., (2001) J. Biol. Chem. 276:27950-8; Lawrence et al., (2001) J. Biol. Chem. 276:31521-7).
Expression profiling: Expression profiling of RNA samples was performed essentially as described (Lockhart et al., (1996) Nat. Biotechnol. 14:1675-80) using the Affymetrix human U95Av2 array. Briefly, RNA was isolated from 100 mm cell culture dishes, DNased, and 15 μg used as a template for double stranded cDNA synthesis according to standard protocols (Invitrogen). […] The resultant cRNA products were purified using RNeasy columns (Qiagen), pooled, and quantitated spectrophotometrically. […]
Data Analysis: Affymetrix CEL files from GeneChip 4.0 (Affymetrix) were imported into Resolver 2.0 under an empirically derived Affymetrix error model (Rosetta Inpharmatics). […] Accordingly, the statistical significance (P-value) of a given expression data point takes into account the underlying error associated with the Affymetrix transcript abundance measurements as determined by this platform-specific error model. […]

[1] = Serum triglyceride levels in fat-fed hamsters; assay type: in vivo, hamster
Description: Blood was sampled at 8, 16 and 48 hours following a single drug treatment for total triglyceride analysis. The mean levels (+/−SEM) for 3 animals per group are shown. The “*” indicates a statistically significant difference with respect to control (p<0.01) by Student's t-test. Animal studies: All procedures performed in this study were approved by the Animal Care and Use committee, and conform to the guide for the Care and Use of Laboratory Animals Act. Male Syrian Golden hamsters (Charles River, Wilmington Mass.) weighing 120-140 g, were used in the study. Animals were kept on a 12-hour light/dark cycle and allowed free access to normal chow and water. The animals were divided into groups according to weight, and fed either an high fat diet (0.5% cholesterol, 5% coconut oil) (N=3) or normal chow diet (N=3). […] At intervals of 0, 8, 16 and 48 hr animals were anesthetized with CO2. Blood was collected by cardiac puncture into EDTA containing tubes; plasma was isolated for immediate analysis of triglycerides by the Dade Clinical Analyser®. Animals were then euthanized with CO2. The liver and kidneys were collected, flash frozen in liquid nitrogen and stored at −80° C. for future gene expression analysis.

**Q.** Which results are given for CCCCCCCN(CCc1ccc(SC(C)(C)C(=O)O)cc1)C(=O)Nc1ccc(F)cc1F [GW9578, ureido-thioisobutyric acid]?
**A.** Response of PPARα responsive genes (FACL2, CPT1, ACOX1) in HepG2 cells (HepG2 cells): No response; Change of triglyceride levels compared with the control group ([1]; single dose, 8, 16 and 48 hours): significantly decreased; Serum triglyceride levels, 48 h ([1]; single dose, mean +/- SEM, 3 animals, control 208.67): 104.67 + 12.02*; Serum triglyceride levels, 8 h ([1]; single dose, mean +/- SEM, 3 animals, control 261.33): 106.00 + 46.22*; Serum triglyceride levels, 16 h ([1]; single dose, mean +/- SEM, 3 animals, control 308.00): 142.33 + 51.31*

Reference: patent US20040106135A1, “Assay for PPAR ligand dependent gene modulation” (priority 2002, published 2004)
